The record followed here is ChEMBL document CHEMBL1131500, “Novel biologically active nonpeptidic inhibitors of myristoylCoA:protein N-myristoyltransferase” (J Med Chem, 1998).

The target of assay [1] is T1, Glycylpeptide N-tetradecanoyltransferase (Candida albicans (strain SC5314 / ATCC MYA-2876) (Yeast), UniProt P30418).
T1 sequence (P30418 whole entry): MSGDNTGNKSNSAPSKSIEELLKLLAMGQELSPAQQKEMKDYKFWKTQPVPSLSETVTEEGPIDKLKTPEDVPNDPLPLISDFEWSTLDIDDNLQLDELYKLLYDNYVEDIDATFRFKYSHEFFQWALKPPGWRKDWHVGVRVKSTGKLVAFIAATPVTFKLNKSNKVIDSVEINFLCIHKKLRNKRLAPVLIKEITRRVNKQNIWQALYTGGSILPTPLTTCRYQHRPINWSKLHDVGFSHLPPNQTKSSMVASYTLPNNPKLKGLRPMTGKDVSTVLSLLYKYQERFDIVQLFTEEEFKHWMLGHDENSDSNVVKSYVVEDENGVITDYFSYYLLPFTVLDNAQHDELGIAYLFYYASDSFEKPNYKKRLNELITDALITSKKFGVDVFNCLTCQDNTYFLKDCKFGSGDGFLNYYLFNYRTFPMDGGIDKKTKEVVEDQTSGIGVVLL
The assay can be described thus: The Compound was tested for the inhibition potency against Candida albicans N-myristoyltransferase (NMT) and reported as apparent Ki.

The target of assay [2] is T1, Glycylpeptide N-tetradecanoyltransferase. Description: compound was tested for the inhibition potency against Candida albicans N-myristoyltransferase (NMT) using peptide substrate GNAASARR-NH2 at its apparent Km and myristoylCoA at 1 uM.
The subject of assay [3] is Candida albicans. Description: the fungicidal activity against Candida albicans was reported. It counts as functional.
In assay [4] the test system is Candida albicans. Description: compound was tested for the effective concentration against Candida albicans for 24 hr. It counts as functional, organism-based.
Assay [5] has as its target T2, Peptide N-myristoyltransferase (Homo sapiens, UniProt P30419+O60551).
T2 sequence (P30419 whole entry): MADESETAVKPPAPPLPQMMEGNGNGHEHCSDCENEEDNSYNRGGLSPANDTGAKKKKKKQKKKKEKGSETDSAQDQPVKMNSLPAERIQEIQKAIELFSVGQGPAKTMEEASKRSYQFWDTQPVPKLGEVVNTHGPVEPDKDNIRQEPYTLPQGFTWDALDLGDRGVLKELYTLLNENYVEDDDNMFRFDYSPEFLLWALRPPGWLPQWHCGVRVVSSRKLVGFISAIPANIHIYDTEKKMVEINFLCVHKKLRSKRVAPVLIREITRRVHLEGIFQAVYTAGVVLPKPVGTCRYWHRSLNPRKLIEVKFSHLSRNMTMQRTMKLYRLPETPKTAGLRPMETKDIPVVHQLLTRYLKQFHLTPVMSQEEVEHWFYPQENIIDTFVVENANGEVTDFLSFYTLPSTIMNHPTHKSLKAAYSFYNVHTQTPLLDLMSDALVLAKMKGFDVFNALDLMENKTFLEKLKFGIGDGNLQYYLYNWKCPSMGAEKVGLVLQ
T2 sequence (O60551 whole entry): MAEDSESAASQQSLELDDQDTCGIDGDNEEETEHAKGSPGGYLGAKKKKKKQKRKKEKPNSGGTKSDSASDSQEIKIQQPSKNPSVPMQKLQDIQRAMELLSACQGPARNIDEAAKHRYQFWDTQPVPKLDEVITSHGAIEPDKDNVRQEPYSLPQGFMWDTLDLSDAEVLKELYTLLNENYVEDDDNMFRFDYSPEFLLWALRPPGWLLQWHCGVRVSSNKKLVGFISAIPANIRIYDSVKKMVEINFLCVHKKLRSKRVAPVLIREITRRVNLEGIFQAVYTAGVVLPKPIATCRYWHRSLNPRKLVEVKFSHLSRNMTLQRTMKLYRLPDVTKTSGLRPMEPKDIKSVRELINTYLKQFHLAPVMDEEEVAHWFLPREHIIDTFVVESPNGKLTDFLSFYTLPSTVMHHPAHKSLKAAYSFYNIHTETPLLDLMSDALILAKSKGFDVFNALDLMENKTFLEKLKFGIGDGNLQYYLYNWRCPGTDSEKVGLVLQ
Description: compound was tested for the inhibition potency against human N-myristoyltransferase (NMT) using peptide substrate GNAASARR-NH2 at its apparent Km and myristoylCoA at 1 uM. It counts as protein assay.

The target in assay [6] is T2, Peptide N-myristoyltransferase. Description: Compound was tested for the inhibition potency against human N-myristoyltransferase (NMT) using peptide substrate GNAASARR-NH2 at its apparent Km and myristoylCoA at 1 uM. It is filed as protein assay.
The test system of assay [7] is Candida albicans. Description: Compound was tested for the effective concentration against Candida albicans for 24 hr. It is filed as functional, organism-based.
The target in assay [8] is T1, Glycylpeptide N-tetradecanoyltransferase. Description: Compound was tested for the inhibition potency against Candida albicans N-myristoyltransferase (NMT) using peptide substrate GNAASARR-NH2 at its apparent Km and myristoylCoA at 1 uM.

Values after ≈ are worked out from the molar mass of the structure shown.

Regarding H-ALYASKLS-NH2, in assay [1], the Ki worked out at 15.3 µM.
Broadly, the IC50 is the point on the concentration scale where inhibition reaches its midpoint. Usually MFC stands for the lowest tested concentration that kills the fungus rather than only halting it. Low values mean more potent killing, high ones less potent killing. In general, EC50 refers to the concentration needed to bring the measured effect to its halfway point. Low values mean greater potency, high ones weaker potency. As to `Cc1nccn1CCCCc1ccc(CC(=O)N[C@H](CO)Cc2ccc(OCCC3CCCCC3)c(CCCCN)c2)cc1`, the IC50 came out at 20 µM in assay [2] and 64 µM in assay [5]. In the assay with Candida albicans [3], this compound showed an MFC of 150 µM (≈ 90.4 µg/mL). Also, in the assay on Candida albicans [4], the midpoint of the response, the EC50, lay at 49 µM.
The corresponding values for `Cc1nccn1CCCCc1ccc(CC(=O)N[C@@H](CO)Cc2ccc(OCCC3CCCCC3)c(CCCN)c2)cc1` are 17.5 µM, 6.5 µM, 250 µM (≈ 147 µg/mL) and 77 µM.
For the compound `Cc1nccn1CCCCc1ccc(CC(=O)N[C@H](CO)Cc2ccc(OCCC3CCCCC3)c(CCCN)c2)cc1`, the IC50 in assay [6] was found to be 62.3 µM; in assay [8], 29.3 µM. The compound further displayed an EC50 with Candida albicans [7] of 56 µM.
